In general, Ki refers to a dissociation constant, usually derived from enzyme kinetics or from competition with a known ligand.

Results on seven compounds are retold here after article PMC3158555, “Cofactor-mediated conformational control in the bifunctional kinase/RNase Ire1” (BMC Biology, 2011).

For the first assay, the target named is T1, Ire1KR32 (cytosolic kinase/RNase portion of Ire1) (Saccharomyces cerevisiae, UniProt P32361).
T1 construct: cytoplasmic kinase + RNase domains with N-terminal 32-aa extension from the linker to the transmembrane segment; GST fusion (pGEX-6P-2) in E. coli, GST cleaved by PreScission; autophosphorylated (~20 phosphates); homo-oligomerizes
T1 sequence (P32361 641-1115): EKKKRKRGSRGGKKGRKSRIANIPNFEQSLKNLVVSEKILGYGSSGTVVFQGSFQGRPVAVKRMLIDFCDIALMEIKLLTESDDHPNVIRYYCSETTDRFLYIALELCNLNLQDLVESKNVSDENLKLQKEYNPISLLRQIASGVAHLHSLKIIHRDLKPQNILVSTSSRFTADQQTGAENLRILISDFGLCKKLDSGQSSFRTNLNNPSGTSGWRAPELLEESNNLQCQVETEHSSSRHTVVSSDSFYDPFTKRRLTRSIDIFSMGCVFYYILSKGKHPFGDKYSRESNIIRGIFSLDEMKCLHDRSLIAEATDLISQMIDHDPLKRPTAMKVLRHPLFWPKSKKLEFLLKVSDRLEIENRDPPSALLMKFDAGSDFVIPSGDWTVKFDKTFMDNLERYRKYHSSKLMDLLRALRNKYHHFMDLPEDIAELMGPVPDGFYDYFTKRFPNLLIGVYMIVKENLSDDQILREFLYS
Briefly: RNase activation, hyperbolic fit of kobs versus cofactor ([…]P-RNA hairpin). The assay is classed as biochemical. The following applies: 3 µM Ire1KR32, 2 mM Mg2+, pH 7.4, 30 °C; allosteric activator in kinase ATP pocket.
With `Nc1ncnc2c1ncn2[C@@H]1O[C@H](COP(=O)(O)OP(=O)(O)O)[C@@H](O)[C@H]1O` [ADP], the “Kcof (apparent cofactor binding constant)” value (“Kcof” for short) was “ADP bound with an apparent affinity similar to that of ATP”.

As for `Nc1ncnc2c1ncn2[C@@H]1O[C@H](COP(=O)(O)O)[C@@H](O)[C@H]1O` [AMP], the “Kcof” value was “the apparent affinity for AMP was tenfold lower than that observed for ATP”.

`c1cc(Nc2cc(C3CC3)[nH]n2)nc(Nc2ccc3[nH]cnc3c2)n1` [APY29]: the “Kcof” value was “APY24 and APY29 activated Ire1 as well as or better than ADP”.

As to `Nc1ncnc2c1ncn2[C@@H]1O[C@H](COP(=O)(O)OP(=O)(O)OP(=O)(O)O)[C@@H](O)[C@H]1O` [ATP], the “Kcof” value is reported as “the apparent affinity for AMP was tenfold lower than that observed for ATP”.

With `Nc1ncnc2c1ncn2[C@@H]1O[C@H](COP(=O)(O)OP(=O)(O)OP(O)(O)=S)[C@@H](O)[C@H]1O` [ATPγS], the “Kcof” value was “ATPγS bound to Ire1 slightly more weakly than ATP”.

For the compound `CCN(CC)CCNC(=O)c1c(C)[nH]c(/C=C2\C(=O)Nc3ccc(F)cc32)c1C` [sunitinib], the “Kcof” value was “activated Ire1KR32 to a similar extent as AMP and ATP”.

Another assay concerns the target T1, Ire1KR32 (cytosolic kinase/RNase portion of Ire1). Description: inhibition of ADP-stimulated RNase cleavage of […]-RNA hairpin. The assay is classed as biochemical. As to conditions: competition with 0.2 mM ADP, 3 µM Ire1KR32, 2 mM Mg2+, pH 7.4, 30 °C; kinase ATP pocket; paper prints mmol for mM.
`Nc1ncnc2c1ncn2[C@@H]1O[C@H](COP(=O)(O)OP(=O)(O)S)[C@@H](O)[C@H]1O` (some centres unmarked) [ADPβS] displayed a Ki of 0.2 ± 0.07 mM.

`Nc1ncnc2c1ncn2[C@@H]1O[C@H](COP(=O)(O)OP(=O)(O)OP(=O)(O)O)[C@@H](O)[C@H]1O` [ATP]: affinity was put at a Ki of 0.1 ± 0.04 mM.
